Results as given in patent US6933295B2, “Substituted isoindoles and the use thereof” (Bayer Aktiengesellschaft, priority 2001, dated 2005).

SMILES	melting point
CC(C#N)Oc1cccc(CN2C(=O)c3cccc(NC(=O)c4ccc(Cl)s4)c3C2=O)c1 (centres unmarked) [Example 7, 5-Chloro-N-{2-[3-(1-cyanoethoxy)benzyl]-1,3-dioxo-2,3-dihydro-1H-isoindol-4-yl}-2-thiophenecarboxamide]	88 °C
N#CCOc1ccc(CN2C(=O)c3cccc(NC(=O)c4ccc(Cl)s4)c3C2=O)cc1 [Example 6, 5-Chloro-N-{2-[4-(cyanomethoxy)benzyl]-1,3-dioxo-2,3-dihydro-1H-isoindol-4-yl}-2-thiophenecarboxamide]	199 °C
